Measured values published in PubChem BioAssay (NCI).
Several values for one entry are separate records, joined by “and”; a condition that tells them apart may be missing. Equal values may be shown once.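 Results reflect a 48-hour exposure of cells in 96-well plates to compound at five concentrations. Here, GI50 denotes the concentration required for 50% inhibition of growth. At the TGI there is no net growth.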

Experiments:
Test in all cases: NCI-60 cell line screen, 48 h
SK-MEL-28 melanoma = test system: SK-MEL-28 melanoma
NCI/ADR-RES ovarian = test system: NCI/ADR-RES ovarian
RXF 393 renal = test system: RXF 393 renal
NCI-H460 lung = test system: NCI-H460 lung
UACC-62 melanoma = test system: UACC-62 melanoma
HT29 colon = test system: HT29 colon
CAKI-1 renal = test system: CAKI-1 renal
MCF7 breast = test system: MCF7 breast
COLO 205 colon = test system: COLO 205 colon
HOP-62 NSCLC = test system: HOP-62 NSCLC
IGROV1 ovarian = test system: IGROV1 ovarian
MALME-3M melanoma = test system: MALME-3M melanoma
SF-539 CNS = test system: SF-539 CNS
NCI-H522 lung = test system: NCI-H522 lung
RPMI-8226 leukemia = test system: RPMI-8226 leukemia
OVCAR-4 ovarian = test system: OVCAR-4 ovarian
T-47D breast = test system: T-47D breast
HL-60(TB) leukemia = test system: HL-60(TB) leukemia
HOP-92 NSCLC = test system: HOP-92 NSCLC
MOLT-4 leukemia = test system: MOLT-4 leukemia
BT-549 breast = test system: BT-549 breast
HCT-15 colon = test system: HCT-15 colon
M14 melanoma = test system: M14 melanoma
A498 renal = test system: A498 renal
EKVX NSCLC = test system: EKVX NSCLC
NCI-H23 lung = test system: NCI-H23 lung
NCI-H226 lung = test system: NCI-H226 lung
OVCAR-3 ovarian = test system: OVCAR-3 ovarian
SF-295 CNS = test system: SF-295 CNS
ACHN renal = test system: ACHN renal
SK-MEL-2 melanoma = test system: SK-MEL-2 melanoma
HCC-2998 colon = test system: HCC-2998 colon
A549 NSCLC = test system: A549 NSCLC
SK-OV-3 ovarian = test system: SK-OV-3 ovarian
UO-31 renal = test system: UO-31 renal
PC-3 prostate = test system: PC-3 prostate
SK-MEL-5 melanoma = test system: SK-MEL-5 melanoma
SF-268 CNS = test system: SF-268 CNS
SNB-75 CNS = test system: SNB-75 CNS
TK-10 renal = test system: TK-10 renal
K-562 leukemia = test system: K-562 leukemia
KM12 colon = test system: KM12 colon
MDA-MB-435 = test system: MDA-MB-435
UACC-257 melanoma = test system: UACC-257 melanoma
U251 CNS = test system: U251 CNS
SN12C renal = test system: SN12C renal
SNB-19 CNS = test system: SNB-19 CNS
SW-620 colon = test system: SW-620 colon
OVCAR-5 ovarian = test system: OVCAR-5 ovarian
786-0 renal = test system: 786-0 renal
HCT-116 colon = test system: HCT-116 colon
MDA-MB-231 breast = test system: MDA-MB-231 breast
OVCAR-8 ovarian = test system: OVCAR-8 ovarian
DU-145 prostate = test system: DU-145 prostate
SR leukemia = test system: SR leukemia
HS 578T breast = test system: HS 578T breast
LOX IMVI melanoma = test system: LOX IMVI melanoma
CCRF-CEM leukemia = test system: CCRF-CEM leukemia

With `C[C@]12O[C@H](C[C@]1(O)CO)n1c3ccccc3c3c4c(c5c6ccccc6n2c5c31)CNC4=O` the GI50 (SK-MEL-28 melanoma) was 0.0851 µM and 0.0854 µM, the TGI (SK-MEL-28 melanoma) was 1.12 µM and 1.36 µM and the GI50 (NCI/ADR-RES ovarian) was 0.87 µM and 1.37 µM. The TGI (NCI/ADR-RES ovarian) was 5.15 µM and 7.26 µM, the GI50 (RXF 393 renal) was 0.0385 µM and 0.0189 µM and the TGI (RXF 393 renal) was 0.622 µM and 0.649 µM. The GI50 (NCI-H460 lung) was 0.11 µM and 0.12 µM, the TGI (NCI-H460 lung) was 1.63 µM and 1.78 µM and the GI50 (UACC-62 melanoma) was 0.0366 µM and 0.0402 µM. The TGI (UACC-62 melanoma) was 1.3 µM and 1.15 µM, the GI50 (HT29 colon) was 0.166 µM and 0.138 µM and the TGI (HT29 colon) was 3.35 µM and 1.38 µM. The GI50 (CAKI-1 renal) was 0.00582 µM and < 0.0169 µM, the GI50 (MCF7 breast) was 0.0774 µM and 0.0605 µM and the TGI (MCF7 breast) was 3.41 µM and 1.92 µM. For the same compound, the GI50 (COLO 205 colon) was 0.0916 µM and 0.129 µM, the TGI (COLO 205 colon) was 0.5 µM and 0.87 µM and the GI50 (HOP-62 NSCLC) was 0.0499 µM and 0.0664 µM. For the same compound, the TGI (HOP-62 NSCLC) was 1.25 µM and 1.07 µM, the GI50 (IGROV1 ovarian) was 0.0514 µM and 0.111 µM and the TGI (IGROV1 ovarian) was 3.67 µM and 4.9 µM. For the same compound, the GI50 (MALME-3M melanoma) was 0.0324 µM and 0.0298 µM, the TGI (MALME-3M melanoma) was 1.35 µM and 1.27 µM and the GI50 (SF-539 CNS) was 0.114 µM and 0.0846 µM. For the same compound, the TGI (SF-539 CNS) was 0.889 µM and 0.54 µM, the GI50 (NCI-H522 lung) was 0.0374 µM and 0.135 µM and the TGI (NCI-H522 lung) was 1.5 µM and 2.06 µM. The GI50 (RPMI-8226 leukemia) was 0.134 µM and 0.215 µM, the TGI (RPMI-8226 leukemia) was 1.6 µM and 1.75 µM and the GI50 (OVCAR-4 ovarian) was 0.891 µM and 1.4 µM. For the same compound, the TGI (OVCAR-4 ovarian) was 4.99 µM and 7.19 µM, the GI50 (T-47D breast) was 0.0791 µM and 0.337 µM and the TGI (T-47D breast) was 1.55 µM and 2.16 µM. The GI50 (HL-60(TB) leukemia) was 0.233 µM and 0.0928 µM, the TGI (HL-60(TB) leukemia) was > 2.31 µM and 1.23 µM and the GI50 (HOP-92 NSCLC) was 0.0422 µM and 0.174 µM. The TGI (HOP-92 NSCLC) was 0.65 µM and 1.16 µM, the GI50 (MOLT-4 leukemia) was 0.0386 µM and 0.0457 µM and the TGI (MOLT-4 leukemia) was 0.451 µM and 1.18 µM. The GI50 (BT-549 breast) was 0.203 µM and 0.288 µM, the TGI (BT-549 breast) was 1.45 µM and 1.81 µM and the GI50 (HCT-15 colon) was 0.0605 µM and 0.0598 µM. The TGI (HCT-15 colon) was 5.91 µM and 9.52 µM, the GI50 (M14 melanoma) was 0.0159 µM and 0.0297 µM and the TGI (M14 melanoma) was 0.492 µM and 1.97 µM. The GI50 (A498 renal) was 0.013 µM and 0.0148 µM, the TGI (A498 renal) was 0.114 µM and 0.0943 µM and the GI50 (EKVX NSCLC) was 1.56 µM. The TGI (EKVX NSCLC) was greater than 9.15 µM, the GI50 (NCI-H23 lung) was 0.0843 µM and 0.189 µM and the TGI (NCI-H23 lung) was 2.32 µM and 2.63 µM. For the same compound, the GI50 (NCI-H226 lung) was 0.267 µM and 0.272 µM, the TGI (NCI-H226 lung) was 1.79 µM and 2.05 µM and the GI50 (OVCAR-3 ovarian) was 0.37 µM and 0.391 µM. The TGI (OVCAR-3 ovarian) was 3.31 µM and 2.76 µM, the GI50 (SF-295 CNS) was 0.171 µM and 0.101 µM and the TGI (SF-295 CNS) was 2.45 µM and 2.02 µM. For the same compound, the GI50 (ACHN renal) was 0.0222 µM and 0.0168 µM, the TGI (ACHN renal) was > 6.5 µM and 3.13 µM and the GI50 (SK-MEL-2 melanoma) was 0.0196 µM and < 0.0117 µM. For the same compound, the TGI (SK-MEL-2 melanoma) was 3.73 µM and 1.78 µM, the GI50 (HCC-2998 colon) was 0.33 µM and 0.237 µM and the TGI (HCC-2998 colon) was 2.5 µM and 2.96 µM. For the same compound, the GI50 (A549 NSCLC) was 0.176 µM and 0.191 µM, the TGI (A549 NSCLC) was > 6.09 µM and 3.5 µM and the GI50 (SK-OV-3 ovarian) was 0.0183 µM and 0.0214 µM. For the same compound, the TGI (SK-OV-3 ovarian) was 0.146 µM and 0.521 µM, the GI50 (UO-31 renal) was 0.0238 µM and 0.0286 µM and the TGI (UO-31 renal) was 1.08 µM and 1.29 µM. The GI50 (PC-3 prostate) was 0.0846 µM and 0.133 µM, the TGI (PC-3 prostate) was > 5.89 µM and 3.9 µM and the GI50 (SK-MEL-5 melanoma) was 0.398 µM and 0.0869 µM. For the same compound, the TGI (SK-MEL-5 melanoma) was 2.06 µM and 1.84 µM, the GI50 (SF-268 CNS) was 0.209 µM and 0.222 µM and the TGI (SF-268 CNS) was 2.56 µM and 2.86 µM. The GI50 (SNB-75 CNS) was 0.0492 µM and 0.0852 µM, the TGI (SNB-75 CNS) was 0.556 µM and 1.3 µM and the GI50 (TK-10 renal) was 0.0223 µM and 0.0189 µM. The TGI (TK-10 renal) was 1.07 µM and 0.744 µM, the TGI (K-562 leukemia) was greater than 100 µM and the GI50 (KM12 colon) was 0.00535 µM and < 0.01 µM. The TGI (KM12 colon) was 1.4 µM and 0.982 µM, the GI50 (MDA-MB-435) was 0.044 µM and 0.0371 µM and the TGI (MDA-MB-435) was 3.97 µM and 2.01 µM. For the same compound, the GI50 (UACC-257 melanoma) was 0.25 µM and 0.366 µM, the TGI (UACC-257 melanoma) was 2.57 µM and 2.46 µM and the GI50 (U251 CNS) was 0.808 µM and 0.523 µM. For the same compound, the TGI (U251 CNS) was 3.58 µM and 2.95 µM, the GI50 (SN12C renal) was 0.0382 µM and 0.0293 µM and the TGI (SN12C renal) was 2.01 µM and 2.35 µM. For the same compound, the GI50 (SNB-19 CNS) was 0.546 µM and 0.544 µM, the TGI (SNB-19 CNS) was 4.08 µM and 3.22 µM and the GI50 (SW-620 colon) was 0.05 µM and 0.0589 µM. The TGI (SW-620 colon) was > 10 µM and 7.84 µM, the GI50 (OVCAR-5 ovarian) was 0.114 µM and the TGI (OVCAR-5 ovarian) was > 10 µM and 4.79 µM. For the same compound, the GI50 (786-0 renal) was 0.197 µM and 0.213 µM, the TGI (786-0 renal) was 1.45 µM and 1.89 µM and the GI50 (HCT-116 colon) was 0.0291 µM and 0.0408 µM. The GI50 (MDA-MB-231 breast) was 0.126 µM and 0.151 µM, the TGI (MDA-MB-231 breast) was 2.82 µM and 3 µM and the GI50 (OVCAR-8 ovarian) was 0.367 µM and 0.391 µM. The TGI (OVCAR-8 ovarian) was > 5.35 µM and 6.53 µM, the GI50 (DU-145 prostate) was 0.0881 µM and 0.11 µM and the TGI (DU-145 prostate) was > 10 µM and 10.2 µM. The GI50 (SR leukemia) was 0.0203 µM and 0.022 µM, the TGI (SR leukemia) was 0.474 µM and 0.24 µM and the GI50 (HS 578T breast) was 0.178 µM and 0.239 µM. For the same compound, the TGI (HS 578T breast) was 3.01 µM and 3.61 µM, the GI50 (LOX IMVI melanoma) was 0.0531 µM and 0.13 µM and the TGI (LOX IMVI melanoma) was 1.11 µM and 1.29 µM. For the same compound, the GI50 (CCRF-CEM leukemia) was 0.0501 µM and 0.0461 µM.
